Source: patent US3947411A, “Novel 1-aryl-2-arylalkyl-3-or-4-[4'-(substituted-alkyl)piperazino-1']butanols- 2-or-butenes-1, and methods of manufacture thereof” (Warner-Lambert Company, priority 1972, dated 1976)
≈ marks a conversion by molar mass, not a printed value. Blank lines part the entries; values can stand above or below the compound they belong to.

Legend:
C. albicans [1] = assay: Minimum inhibitory concentration for fungi in presence of serum, C. albicans (Table VI); format: cell-based; conditions: Candida albicans; Sabouraud nutrient broth + 10% bovine serum, 28°C, 48 hours
Escherichia coli = assay: Agar well inhibition zone test against bacteria, Escherichia coli (Table III); conditions: quantity per well giving inhibition zone (500, 50, 5 μg tested); nutrient agar, 37°, 24 hours
A. niger = assay: Minimum inhibitory concentration for fungi, tube dilution, A. niger (Table IV); conditions: Aspergillus niger, 48 h, read-out: Minimum Inhibitory Concentration, A. niger
Staphylococcus aureus = assay: Agar well inhibition zone test against bacteria, Staphylococcus aureus (Table III); conditions: quantity per well giving inhibition zone (500, 50, 5 μg tested); nutrient agar, 37°, 24 hours
C. albicans [2] = assay: Minimum inhibitory concentration for fungi, tube dilution, C. albicans (Table IV); conditions: Candida albicans, 48 h, read-out: Minimum Inhibitory Concentration, C. albicans
Aspergillus niger = assay: Agar well inhibition zone test against fungi, Aspergillus niger (Table II); conditions: quantity per well giving inhibition zone (500, 50, 5 μg tested); Sabouraud agar, 28°, 48 hours
Candida albicans = assay: Agar well inhibition zone test against fungi, Candida albicans (Table II); conditions: quantity per well giving inhibition zone (500, 50, 5 μg tested); Sabouraud agar, 28°, 48 hours
Solubility in water = format: physicochemical; conditions: hydrochlorides or oxalates, read-out: solubilities (in water)
Protocol: The following list contains examples of those compounds which are made according to the methods disclosed. (The individual compounds are identified by elementary analyses and infrared spectra, by ultra-violet or nuclear resonance spectra, if necessary.) Individual melting points and solubilities (in water) are also given as is the method by which each compound is prepared.
The melting points and solubilities are given for the Hydrochlorides I - XVI; XVIII - XXVII; XXIX - XXXV; XXXVII - XLII; XLIV - LXII; LXIV - LXVII, and the Oxalates XVII; […]; XXXVI; LXIII.

Staph. aureus = assay: Minimum inhibitory concentration for bacteria, tube dilution, Staph. aureus (Table V); conditions: Staphylococcus aureus, 48 h, read-out: Minimum Inhibitory Concentration, Staph. aureus

MIC (A. niger): 256 µg/mL (≈ 0.756 mM)
MIC (C. albicans [2]): 256 µg/mL (≈ 0.756 mM)
solubility (Solubility in water): 200 mg/mL (≈ 591 mM)
SMILES: CC(N1CCN(C)CC1)C(O)(Cc1ccccc1)Cc1ccccc1 (stereo not shown) [LI, 1-phenyl-2-benzyl-3-[1'-methyl-piperazino-4'-]-butanol-2]
Inhibition Area at μg, E. coli (Escherichia coli): 500 µg
Inhibition Area at μg, Staph. aureus (Staphylococcus aureus): 500 µg
Inhibition Area at μg, Asp. niger (Aspergillus niger): 50 µg
Inhibition Area at μg, Cand. albicans (Candida albicans): 50 µg

solubility (Solubility in water): 10 mg/mL (≈ 24.1 mM)
SMILES: CC(N1CCN(Cc2ccccc2)CC1)C(O)(Cc1ccccc1)Cc1ccccc1 (stereo not shown) [LIII, 1-phenyl-2-benzyl-3-(4'-benzyl-piperazino-1')-butanol-2]
Inhibition Area at μg, E. coli (Escherichia coli): > 500 µg
Inhibition Area at μg, Staph. aureus (Staphylococcus aureus): > 500 µg
Inhibition Area at μg, Asp. niger (Aspergillus niger): > 500 µg
Inhibition Area at μg, Cand. albicans (Candida albicans): > 500 µg

solubility (Solubility in water): 10 mg/mL (≈ 23.3 mM)
SMILES: Cc1cccc(CN2CCN(C(C)C(O)(Cc3ccccc3)Cc3ccccc3)CC2)c1 (stereo not shown) [LIV, 1-phenyl-2-benzyl-3-(4'-m-methyl-benzyl-piperazino-1')-butanol-2]
Inhibition Area at μg, E. coli (Escherichia coli): > 500 µg
Inhibition Area at μg, Staph. aureus (Staphylococcus aureus): > 500 µg
Inhibition Area at μg, Asp. niger (Aspergillus niger): > 500 µg
Inhibition Area at μg, Cand. albicans (Candida albicans): > 500 µg

solubility (Solubility in water): < 10 mg/mL
SMILES: CN1CCN(CC(O)(Cc2ccccc2)Cc2ccccc2)CC1 [LV, 1-phenyl-2-benzyl-3-(4'-methyl-piperazino-1')-propanol-2]
Inhibition Area at μg, E. coli (Escherichia coli): > 500 µg
Inhibition Area at μg, Staph. aureus (Staphylococcus aureus): > 500 µg
Inhibition Area at μg, Asp. niger (Aspergillus niger): > 500 µg
Inhibition Area at μg, Cand. albicans (Candida albicans): > 500 µg

solubility (Solubility in water): 10 mg/mL (≈ 29.5 mM)
SMILES: CN1CCN(CCC(O)(Cc2ccccc2)Cc2ccccc2)CC1 [LVI, 1-phenyl-2-benzyl-4-(4'-methyl-piperazino-1')-butanol-2]
Inhibition Area at μg, E. coli (Escherichia coli): 500 µg
Inhibition Area at μg, Staph. aureus (Staphylococcus aureus): 500 µg
Inhibition Area at μg, Asp. niger (Aspergillus niger): 500 µg
Inhibition Area at μg, Cand. albicans (Candida albicans): 500 µg

solubility (Solubility in water): 100 mg/mL (≈ 197 mM)
SMILES: CN1CCN(CCCCCCN2CCN(CCC(O)(Cc3ccccc3)Cc3ccccc3)CC2)CC1 [LXI, 1-phenyl-2-benzyl-4-{4'-[w-(4"-methyl-piperazino-1")-n-hexyl]-piperazino-1'}-butanol-2]
Inhibition Area at μg, E. coli (Escherichia coli): > 500 µg
Inhibition Area at μg, Staph. aureus (Staphylococcus aureus): > 500 µg
Inhibition Area at μg, Asp. niger (Aspergillus niger): > 500 µg
Inhibition Area at μg, Cand. albicans (Candida albicans): > 500 µg

solubility (Solubility in water): 50 mg/mL (≈ 91.3 mM)
SMILES: CC(N1CCN(CCN(Cc2ccccc2)Cc2ccccc2)CC1)C(O)(Cc1ccccc1)Cc1ccccc1 (stereo not drawn) [XVI, 1-phenyl-2-benzyl-3-[4'-(β-dibenzylamino-ethyl)-piperazino-1']-butanol-2]
Inhibition Area at μg, E. coli (Escherichia coli): > 500 µg
Inhibition Area at μg, Staph. aureus (Staphylococcus aureus): > 500 µg
Inhibition Area at μg, Asp. niger (Aspergillus niger): > 500 µg
Inhibition Area at μg, Cand. albicans (Candida albicans): > 500 µg

solubility (Solubility in water): 100 mg/mL (≈ 206 mM)
SMILES: CCN(CCN1CCN(C(C)C(O)(Cc2ccccc2)Cc2ccccc2)CC1)Cc1ccccc1 (stereo not drawn) [XVII, 1-phenyl-2-benzyl-3-[4'-(β-N-ethyl-N-benzyl-aminoethyl)-piperazino-1']-butanol-2]
Inhibition Area at μg, E. coli (Escherichia coli): > 500 µg
Inhibition Area at μg, Staph. aureus (Staphylococcus aureus): > 500 µg
Inhibition Area at μg, Asp. niger (Aspergillus niger): 500 µg
Inhibition Area at μg, Cand. albicans (Candida albicans): 500 µg

The next lines start with the compound.

SMILES: CC(N1CCN(CCN(C)C)CC1)C(O)(Cc1ccccc1)Cc1ccccc1 (stereo not drawn) [Compound I, 1-phenyl-2-benzyl-3-[4'-(β-dimethylamino-ethyl)-piperazino-1']-butanol-2]
MIC (C. albicans [1]): 64 µg/mL
Inhibition Area at μg, E. coli (Escherichia coli): 500 µg
MIC (A. niger): 128 µg/mL (≈ 0.324 mM)
Inhibition Area at μg, Staph. aureus (Staphylococcus aureus): 500 µg
MIC (C. albicans [2]): 64 µg/mL (≈ 0.162 mM)
Inhibition Area at μg, Asp. niger (Aspergillus niger): 50 µg
Inhibition Area at μg, Cand. albicans (Candida albicans): 50 µg
solubility (Solubility in water): 100 mg/mL (≈ 253 mM)

SMILES: CCN(CC)CCN1CCN(C(C)C(O)(Cc2ccccc2)Cc2ccccc2)CC1 (stereo not drawn) [II, 1-phenyl-2-benzyl-3-[4'-(β-diethylaminoethyl)-piperazino-1']-butanol-2]
Inhibition Area at μg, E. coli (Escherichia coli): 500 µg
MIC (A. niger): 512 µg/mL (≈ 1.21 mM)
Inhibition Area at μg, Staph. aureus (Staphylococcus aureus): 500 µg
MIC (C. albicans [2]): 1020 µg/mL (≈ 2.42 mM)
Inhibition Area at μg, Asp. niger (Aspergillus niger): 50 µg
Inhibition Area at μg, Cand. albicans (Candida albicans): 50 µg
solubility (Solubility in water): 50 mg/mL (≈ 118 mM)

SMILES: CC(N1CCN(c2ccccc2)CC1)C(O)(Cc1ccccc1)Cc1ccccc1 (stereo not shown) [LII, 1-phenyl-2-benzyl-3-(4'-phenyl-piperazino-1')-butanol-2]
Inhibition Area at μg, E. coli (Escherichia coli): > 500 µg
Inhibition Area at μg, Staph. aureus (Staphylococcus aureus): > 500 µg
Inhibition Area at μg, Asp. niger (Aspergillus niger): > 500 µg
Inhibition Area at μg, Cand. albicans (Candida albicans): > 500 µg
solubility (Solubility in water): < 10 mg/mL

SMILES: OC(CCN1CCN(c2ccccc2)CC1)(Cc1ccccc1)Cc1ccccc1 [LVII, 1-phenyl-2-benzyl-4-(4'-phenyl-piperazino-1')-butanol-2]
Inhibition Area at μg, E. coli (Escherichia coli): 500 µg
Inhibition Area at μg, Staph. aureus (Staphylococcus aureus): > 500 µg
Inhibition Area at μg, Asp. niger (Aspergillus niger): > 500 µg
Inhibition Area at μg, Cand. albicans (Candida albicans): > 500 µg
solubility (Solubility in water): < 10 mg/mL

SMILES: CC(N1CCN(CCN2CCN(c3ccccc3)CC2)CC1)C(O)(Cc1ccccc1)Cc1ccccc1 (stereo not drawn) [XI, 1-phenyl-2-benzyl-3-{4'-[β-(4"-phenyl-piperazino-1")-ethyl]-piperazino-1'}-butanol-2]
Inhibition Area at μg, E. coli (Escherichia coli): > 500 µg
Inhibition Area at μg, Staph. aureus (Staphylococcus aureus): 50 µg
MIC (C. albicans [2]): > 1020 µg/mL
Inhibition Area at μg, Asp. niger (Aspergillus niger): 500 µg
Inhibition Area at μg, Cand. albicans (Candida albicans): 50 µg
solubility (Solubility in water): 50 mg/mL (≈ 97.5 mM)
MIC (Staph. aureus): > 1020 µg/mL

SMILES: CC(C(=Cc1ccccc1)Cc1ccccc1)N1CCN(CCCl)CC1 (stereo not drawn) [XLIV, 1-phenyl-2-benzyl-3-(4'-β-chloro-ethyl-piperazino-1')-butene-1]
Inhibition Area at μg, E. coli (Escherichia coli): 500 µg
MIC (A. niger): > 1020 µg/mL
Inhibition Area at μg, Staph. aureus (Staphylococcus aureus): 500 µg
MIC (C. albicans [2]): > 1020 µg/mL
Inhibition Area at μg, Asp. niger (Aspergillus niger): 50 µg
Inhibition Area at μg, Cand. albicans (Candida albicans): 50 µg
solubility (Solubility in water): 10 mg/mL (≈ 27.1 mM)

SMILES: CC(N1CCN(CCO)CC1)C(O)(Cc1ccccc1)Cc1ccccc1 (stereo not drawn) [XLVI, 1-phenyl-2-benzyl-3-[4'-(β-hydroxyethyl)-piperazino-1']-butanol-2]
Inhibition Area at μg, E. coli (Escherichia coli): > 500 µg
Inhibition Area at μg, Staph. aureus (Staphylococcus aureus): 500 µg
Inhibition Area at μg, Asp. niger (Aspergillus niger): 500 µg
Inhibition Area at μg, Cand. albicans (Candida albicans): 500 µg
solubility (Solubility in water): 100 mg/mL (≈ 271 mM)

SMILES: CC(N1CCN(CCN(C)c2ccccc2)CC1)C(O)(Cc1ccccc1)Cc1ccccc1 (stereo not drawn) [XVIII, 1-phenyl-2-benzyl-3-[4'-(β-N-phenyl-N-methyl-aminoethyl)-piperazino-1']-butanol-2]
Inhibition Area at μg, E. coli (Escherichia coli): > 500 µg
Inhibition Area at μg, Staph. aureus (Staphylococcus aureus): > 500 µg
Inhibition Area at μg, Asp. niger (Aspergillus niger): > 500 µg
Inhibition Area at μg, Cand. albicans (Candida albicans): > 500 µg
solubility (Solubility in water): 10 mg/mL (≈ 21.9 mM)

SMILES: CC(C(=Cc1ccccc1)Cc1ccccc1)N1CCN(CCN2CCOCC2)CC1 (stereo not drawn) [XXXI, 1-phenyl-2-benzyl-3-[4'-(β-morpholino-ethyl)-piperazino-1']-butene-1]
Inhibition Area at μg, E. coli (Escherichia coli): > 500 µg
MIC (A. niger): 64 µg/mL (≈ 0.153 mM)
Inhibition Area at μg, Staph. aureus (Staphylococcus aureus): 50 µg
Inhibition Area at μg, Asp. niger (Aspergillus niger): 50 µg
Inhibition Area at μg, Cand. albicans (Candida albicans): 500 µg
solubility (Solubility in water): 100 mg/mL (≈ 238 mM)
MIC (Staph. aureus): 128 µg/mL (≈ 0.305 mM)

SMILES: CC1CCCN(CCN2CCN(C(C)C(=Cc3ccccc3)Cc3ccccc3)CC2)C1 (stereo not drawn) [XXXIV, 1-phenyl-2-benzyl-3-{4'-[β-(3"-methylpiperidino)-ethyl]-piperazino-1'}-butene-1]
Inhibition Area at μg, E. coli (Escherichia coli): 500 µg
MIC (A. niger): 32 µg/mL (≈ 0.0741 mM)
Inhibition Area at μg, Staph. aureus (Staphylococcus aureus): 50 µg
MIC (C. albicans [2]): 16 µg/mL (≈ 0.0371 mM)
Inhibition Area at μg, Asp. niger (Aspergillus niger): 50 µg
Inhibition Area at μg, Cand. albicans (Candida albicans): 50 µg
solubility (Solubility in water): 25 mg/mL (≈ 57.9 mM)
MIC (Staph. aureus): 128 µg/mL (≈ 0.297 mM)
